# Experimental data published in patent US20140315789A1, “ANTIMICROBIAL PEPTIDES AND USES THEREOF” (NEWSOUTH INNOVATIONS PTY LIMITED, priority 2011, published 2014).
# Key:
# [1] = system: Pseudomonas aeruginosa PA01; assay: Bacterial adhesion to peptide-coated glass surfaces, LIVE/DEAD fluorescence microscopy; type: cell-based; details: P. aeruginosa; for total surface coverage of bacteria / proportion of non-viable cells to total bacteria present / reduction of total surface coverage compared to BLK: peptide attached to maleimide-functionalised glass; for total surface coverage of bacteria: 48 hours incubation, BLK over 21.7%; for proportion of non-viable cells to total bacteria present: BLK 5.8%; for reduction of total surface coverage compared to BLK: versus blank glass
# Protocol: (§1) Bacterial strains (Staphylococcus aureus strain 38 or Pseudomonas aeruginosa PA01) were streaked onto Chocolate agar (Oxoid, UK) and incubated overnight at 37° C. A single colony was cultured in 10 ml of tryptone soya broth (TSB) (Oxoid, UK) overnight to log phase at 37° C. Optical density of the resulting culture was adjusted to OD660 of 0.1 (corresponding to 1×10^8 cfu/ml) in TSB media (0.25% w/v glucose). Bacterial numbers were confirmed by a retrospective viable count.
# (§2) Glass surfaces were placed in 4 ml of the above culture and incubated at 37° C. with shaking at 60 rpm for 24 hours, then the media was replaced with fresh TSB (4 ml) and incubated for a further 24 hours (total of 48 hours). The samples were then washed with PBS before examination by fluorescent staining
# (§3) Glass samples with adherent bacteria prepared as described above were stained with LIVE/DEAD BacLight Bacterial Viability Kit (Molecular Probes, Inc., OR, USA) according to the manufacturer's directions as described by others for the analysis of biofilms at surfaces (Kirov, Barraud). Microscopic observation and image acquisition was performed with Olympus FV1000 Confocal Inverted Microscope. Images obtained from 10 representative areas on each of triplicate samples for each surface were analysed using Image software (Abramoff et al.); Biophotonics International. 2004, 11(7), pp 36-42 and Rasband et al. Image). Bethesda Md., USA, U.S. National Institutes of Health, 1997 ? 2011, available from http://imagej.hih.gov.au/ij/). The image analysis results were measured as the average area of live cells and the average area of dead cells per field of view and are reported as the average percentage coverage. Prior to comparing the groups, equality of variances was tested using Levene's test. Unequal variances were adjusted by transforming the data using square root transformation. Differences between the groups were analysed using linear mixed model ANOVA, which adjusts the correlation due to repeated observations. Post hoc multiple comparisons were done using Dunnett T3 comparison. Statistical significance was set at 5%.
# (§4) The adhesion of Pseudomonas aeruginosa and Staphylococcus aureus to the modified surfaces was evaluated using fluorescence microscopy. The images obtained were analysed using ImageJ software (Abramoff et al. J. Biophotonics International. 2004, 11(7), pp 36-42 and Rasband et al. ImageJ. Bethesda Md., USA, U.S. National Institutes of Health, 1997-2011, available from http://imagej.hih.gov.au/ij/). The areas of the surfaces covered by bacteria and the relative proportions of bacteria with intact and damaged membranes for each surface were examined by image analysis and the results are shown in FIG. 4.
# [2] = system: Staphylococcus aureus strain 38; assay: as above; type: cell-based; details: S. aureus; for total surface coverage of bacteria / proportion of non-viable bacteria / reduction in total bacteria compared with BLK: peptide attached to maleimide-functionalised glass; for total surface coverage of bacteria: 48 hours incubation, controls more than 16%; for proportion of non-viable bacteria: BLK 2.2%; for reduction in total bacteria compared with BLK: versus blank glass
# Protocol: as §1, §2, §3, §4
# [3] = surface-attached, fold versus CysC
Sequence,total surface coverage of bacteria [1],proportion of non-viable cells to total bacteria present [1],reduction of total surface coverage compared to BLK [1],"effectiveness in reducing total surface coverage relative to CysC [1, 3]","nonviable cells (stained red) relative to CysC [1, 3]",total surface coverage of bacteria [2],proportion of non-viable bacteria [2],reduction in total bacteria compared with BLK [2],"effectiveness in reducing total surface coverage relative to CysC [2, 3]","nonviable cells (stained red) relative to CysC [2, 3]"
"CTLISWIKNKRKQRPRVSRRRRRRGGRRRR [CysN, melimine wherein an extra cysteine residue has been added to the N-terminus]",6.6%,40.6%,69.4%,approximately 2 times,~3 times,3.0%,13.0%,82.7%,approximately 4 times,approximately 8 times
"TLISWIKNKRKQCRPRVSRRRRRRGGRRRR [Cys13, melimine wherein an extra cysteine residue has been added to position 13]",7.1%,30.1%,67.4%,,,6.3%,9.8%,64.1%,,
"TLISWIKNKRKQRPRVSRRRRRRGGRRRRC [CysC, melimine wherein an extra cysteine residue has been added to the C-terminus]",11.3%,not statistically different to the controls,47.7%,,,11.8%,not different to the control,,,
